# From patent US20250120958A1, “Treatment of GM2 Gangliosidosis” (Azafaros B.V., priority 2022, published 2025)
# Test system: Sandhoff mouse model (Hexb (−/−))
# Experiment: Open field test (OFT) in Sandhoff mice
# Assay type: in vivo
# Details: Hexb (−/−) mice vs vehicle, 0.5-6 mg/kg/day
# Procedure: The OFT was conducted using a 40×40 cm sized apparatus in a quiet room and constant lighting conditions. Trial duration was 5 min. All trials were videotaped and later analysed using the tracking software Smart® Version 3.0.05. Measures included the average locomotion speed, walked distance and time spent in outer and inner zones of the field.
# Behavioral assessments, including open field tests (OFT, ActiMot, TSE systems) and rotarod (RR, IITC Life Sciences), were also performed. The OFT assessed motor skills by placing a mouse into a square box with high walls for 5 minutes to record several parameters, including distance travelled (centimetres) and resting time in zone (seconds). Motor coordination of mice was assessed using a RR apparatus as per previously published protocol (Osmon, Vyas et al. 2018). Briefly, mice were placed on moving cylinders that accelerated from 4 to 40 rotations per minute (rpm) over 5 minutes. Each mouse was allowed three trials on the RR with a minimum of 10 minutes for rest in-between assessments. The highest number achieved was recorded for each of the following parameters: latency to fall, end rotations per minute and distance travelled.
smiles,measurement,value
OC[C@H]1[C@@H](O)[C@H](O)[C@@H](O)CN1CCCCCOCc1ccc(-c2ccccc2)c(F)c1 [AZ-3102],"OFT assessments (Total Distance Travelled, Resting Time in Zone)",significantly improved
